Here are results for seven substances from publication PMC4960549, “Structure-Activity Analysis of Gram-positive Bacterium-producing Lasso Peptides with Anti-mycobacterial Activity” (Scientific Reports, 2016).

For the test, the system named is M. smegmatis 607. The experiment in a line: Anti-mycobacterial activity by paper disk method. The format is cell-based, Mycobacterium smegmatis. Conditions: for Inhibition zone: paper disk (6 mm) containing 1 μg peptide on Middlebrook 7H9 agar spread with M. smegmatis 607 (approx. 1.5 × 10^8 CFU/ml), 37 °C, 48 hr, diameter of inhibitory zone, average from two independent experiments, '-' = no zone (activity lost); for Anti-mycobacterial activity compared with lariatin A (in words): M. smegmatis, paper disk method, 1 μg per disk. As to the method: To gain insights into the structure-activity relationships of lariatin A, anti-mycobacterial activity of 20 lariatin variants against M. smegmatis was evaluated by paper disk method (Fig. 4). Among lariatin variants related to the macrolactam ring, the anti-mycobacterial activity of Tyr6 variant only was lost, while the replacement of Tyr6 with tryptophan and phenylalanine didn’t affect the anti-mycobacterial activity. […] Furthermore, Gly11 and Asn14 were closely involved in the anti-mycobacterial activity because of the loss of the activity in their variants. […] Thus, it was shown that the positively charged amino acid residue was favorable at the residue at position 17. Also, it was shown that the amino acid residue without bulky or branched side chains at the residues at positions 15, 16 and 18 contributed to the higher potency.
Figure 4 Anti-mycobacterial activity of lariatin variants. Anti-mycobacterial activities of lariatin variants were evaluated by a paper disk method. Value of the inhibition zone against M. smegmatis and relative activity in comparison with lariatin A were shown here. Bar color represents potency of each compound when the value of inhibition zone of lariatin A is set up at 100%: yellow, <50% activity; green, 50–120% activity; blue, >120% activity. Value of inhibition zone represents the average from two independent experiments. TEXT PRINTED IN THE PICTURE: Lariatin A: Inhibition zone (mm): 21.8 | S2A: Inhibition zone (mm): 20.4 | Q3A: Inhibition zone (mm): 16.3 | L4A: Inhibition zone (mm): 8.9 | V5A: Inhibition zone (mm): 11.3 | Y6A: Inhibition zone (mm): - | V10A: Inhibition zone (mm): 7.6 | G11A: Inhibition zone (mm): - | H12A: Inhibition zone (mm): 12.7 | S13A: Inhibition zone (mm): 19.8 | N14A: Inhibition zone (mm): - | V15A: Inhibition zone (mm): 20.7 | I16A: Inhibition zone (mm): 24.0 | K17A: Inhibition zone (mm): 10.4 | P18A: Inhibition zone (mm): 29.6 | V15A/I16A: Inhibition zone (mm): 29.3 | Y6F: Inhibition zone (mm): 30.7 | Y6W: Inhibition zone (mm): 22.8 | R7K: Inhibition zone (mm): 26.5 | W9Y: Inhibition zone (mm): 14.9 | K17R: Inhibition zone (mm): 31.1
Antimicrobial activity of lariatins against M. smegmatis 607 was measured by a paper disk method. The cell suspension of M. smegmatis 607 was adjusted to approximately 1.5 × 10^8 CFU ml^−1 in a Middlebrook 7H9 broth (Difco, Becton Dickinson, Sparks, MD, USA) containing 0.05% Tween 80 and 10% ADC enrichment (5.0% bovine albumin fraction V, 2.0% dextrose and catalase (30 μg/ml)), and were spread on a Middlebrook 7H9 agar plate. A paper disk (6 ϕ mm, Advantec Toyo Kaisha, Ltd. Tokyo, Japan) containing 1 μg lariatin variants was placed on the agar plate and was incubated at 37 °C for 48 hr. A diameter (mm) of the inhibitory zone observed around the paper disk was measured to evaluate the anti-mycobacterial activity.

Positions of bridges follow the written chain, without caps; N, C: chain ends. No end group written: not given here.

Substance “H12A: lariatin A variant, alanine substitution at position 12 (GSQLVYREWVGASNVIKP; lactam N-8 (inferred); not fully specified; ends not checked; UniProt H7C8I3 27-44, looked up, variant H12A)” came in with an Inhibition zone of 12.7 mm.

Consider “K17A: lariatin A variant, alanine substitution at position 17 (GSQLVYREWVGHSNVIAP; lactam N-8 (inferred); not fully specified; ends not checked; UniProt H7C8I3 27-44, looked up, variant K17A)”, for which the “Anti-mycobacterial activity compared with lariatin A (in words)” value is on record as “weaker activity” and the Inhibition zone was found to be 10.4 mm.

Regarding “Lariatin A (GSQLVYREWVGHSNVIKP; lactam N-8 (inferred); ends not checked; UniProt H7C8I3 27-44, looked up) [18-residue lasso peptide from Rhodococcus jostii K01-B0171, macrolactam ring between Gly1 and Glu8, C-terminal tail threaded through ring]”, the Inhibition zone came to 21.8 mm.

As for “P18A: lariatin A variant, alanine substitution at position 18 (GSQLVYREWVGHSNVIKA; lactam N-8 (inferred); not fully specified; ends not checked; UniProt H7C8I3 27-44, looked up, variant P18A)”, the “Anti-mycobacterial activity compared with lariatin A (in words)” value was “more potent activity than lariatin A” and the Inhibition zone turned out to be 29.6 mm.

Consider “S13A: lariatin A variant, alanine substitution at position 13 (GSQLVYREWVGHANVIKP; lactam N-8 (inferred); not fully specified; ends not checked; UniProt H7C8I3 27-44, looked up, variant S13A)”, for which the Inhibition zone is 19.8 mm.

“V15A: lariatin A variant, alanine substitution at position 15 (GSQLVYREWVGHSNAIKP; lactam N-8 (inferred); not fully specified; ends not checked; UniProt H7C8I3 27-44, looked up, variant V15A)” came in with an Inhibition zone of 20.7 mm.

The substance “Y6F: lariatin A variant, Tyr6 replaced with phenylalanine (GSQLVFREWVGHSNVIKP; lactam N-8 (inferred); ends not checked; UniProt H7C8I3 27-44, looked up, variant Y6F)” came in with an Inhibition zone of 30.7 mm.
